The test system of one data set is LNCaP. Nature of the data set: cell growth assay (MTT), LNCaP. Format: cell-based. The settings on record: Homo sapiens, 48 h, Figure 4B, read-out: IC50, prostate cancer cell line growth. As for the experimental part: LNCaP, CWR22R, and PC-3 cells were grown in RPMI containing 10% FBS. Cells were plated at a density of 5 × 10^4 cells/well in 24-well plates overnight and incubated with difference concentrations of chemicals for 48 h. Cell growth was assessed using the 3-{4,5-dimethylthiazol-2-yl}-2,5-diphenyltetrazolium bromide (MTT) assay. At each time-point, 50 μl of 5 mg/ml MTT was added to each well containing 500 μl medium and incubated for 3 h, followed by the addition of 500 μl isopropyl alcohol to dissolve the reduced formazan product. Absorbance of each well was measured at a wavelength of 590 nm in a DU 640B spectrophotometer (Beckman, Fullerton, CA), according to the manufacturer’s protocol. Values represent mean OD590 ± SD from at least three independent reaction wells.

A further data set deals with T1, AR-cofactor interaction (Homo sapiens, UniProt P10275).
T1 construct: expressed in transfected cells; host or cells: PC-3
T1 sequence (P10275 1-920): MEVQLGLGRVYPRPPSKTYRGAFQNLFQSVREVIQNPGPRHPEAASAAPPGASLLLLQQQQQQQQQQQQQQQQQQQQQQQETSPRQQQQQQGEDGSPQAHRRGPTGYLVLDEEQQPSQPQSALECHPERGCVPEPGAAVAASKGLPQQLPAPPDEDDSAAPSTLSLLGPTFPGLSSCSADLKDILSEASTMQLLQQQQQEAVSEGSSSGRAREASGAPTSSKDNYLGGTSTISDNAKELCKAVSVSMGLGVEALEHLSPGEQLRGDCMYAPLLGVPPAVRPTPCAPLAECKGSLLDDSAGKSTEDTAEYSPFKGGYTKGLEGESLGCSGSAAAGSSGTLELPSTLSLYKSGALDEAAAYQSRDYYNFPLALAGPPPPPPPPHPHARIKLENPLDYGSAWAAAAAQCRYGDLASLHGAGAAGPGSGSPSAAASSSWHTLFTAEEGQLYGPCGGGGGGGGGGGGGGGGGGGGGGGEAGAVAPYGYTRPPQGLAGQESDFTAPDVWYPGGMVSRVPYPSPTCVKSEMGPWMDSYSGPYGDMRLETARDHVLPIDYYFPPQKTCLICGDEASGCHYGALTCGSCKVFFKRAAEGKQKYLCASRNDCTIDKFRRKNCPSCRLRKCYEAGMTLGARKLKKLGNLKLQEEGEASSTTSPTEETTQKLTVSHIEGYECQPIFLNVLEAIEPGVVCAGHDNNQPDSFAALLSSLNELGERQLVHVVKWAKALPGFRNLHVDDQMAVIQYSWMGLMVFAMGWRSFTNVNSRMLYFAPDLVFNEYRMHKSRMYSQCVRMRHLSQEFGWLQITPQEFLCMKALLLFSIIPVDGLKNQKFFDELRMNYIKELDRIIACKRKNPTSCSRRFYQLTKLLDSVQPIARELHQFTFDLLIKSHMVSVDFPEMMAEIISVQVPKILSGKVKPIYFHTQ
Nature of the data set: AR-cofactor interaction reporter assay (GAL4-DBD-ARA54C / VP16-AR) in PC-3 cells. The note with it: 10 nM DHT, Figure 6C. Format: cell-based. As for the experimental part: Figure 6 Mechanism underlying suppression of AR-related functions by oxadiazole derivatives (A–C) Transcriptional activity in reporter assays. PC-3 cells in 24-well plates were transfected as indicated below. After incubation for 16 h, cells were treated with ethanol, 10 nM DHT, or 0.01–10 μM HWC-489 or LHJ-647 for an additional 16 h. Luciferase activity in cell lysates was determined and normalized to protein concentrations. Relative luciferase activity was calculated using the luciferase reporter assay system. (A) PC-3 cells were co-transfected with 350 ng pCDNA3-flag-hAR-N (residues 1–506), 350 ng pCDNA3-hAR-C (residues 556–919), and 300 ng MMTV-Luc plasmids. (B) PC-3 cells were co-transfected with 350 ng GAL4-DBD-3-18, 350 ng pCMX-VP16-AR, and 300 ng pG5-Luc plasmids. (C) PC-3 cells were transfected with 350 ng GAL4-DBD-ARA54C, 350 ng VP16-AR, and 300 ng pG5-Luc plasmids. (D) LHJ-647 promotes AR protein degradation.

A further data set deals with NOD/SCID mice. Nature of the data set: treatment toxicity monitoring in xenograft mice. The settings on record: for changes in body weight, clinical signs and gross morphology: during the study period; for mouse mortality: in vivo. Format: in vivo. As for the experimental part: All experiments involving laboratory animals were conducted in accordance with the Guidelines for Animal Experiments of Chang Gung Memorial Hospital and approved by the Animal Research Committee at the hospital. LNCaP cells were harvested, washed twice with phosphate-buffed saline, and resuspended at a final concentration of 5 × 10^6 cells/mL in Matrigel (BD Biosciences, San Jose, CA) containing basement membrane components. Next, 5 × 10^5 cells (100 μL per site) were subcutaneously injected into the flanks of 4–6 week-old male NOD/SCID mice (BioLASCO, Taiwan). Tumor development was confirmed within 2–3 weeks after injection of the same number of cell subclones. Treatment with different chemicals was initiated at the same time. Tumor dimensions were measured twice a week with calipers, and tumor volumes calculated using the formula: tumor volume (mm^3) = tumor length (mm) × [tumor width (mm)]^2 × 0.5. Three to five mice were used per group (with or without chemical treatment). Mice were sacrificed 4 weeks after chemical injection and tumors harvested for further analyses. For evaluation of treatment toxicity, animal mortality, changes in body weight, clinical signs and gross morphology were monitored during the experiment.

One may read the IC50 as the concentration at which inhibition is half-maximal.

As for `Cc1ccc(-c2nnc(Nc3ccccc3)o2)cc1` [HWC-489], the IC50 in the data set on LNCaP was in the range of 1 to 10 µM. Besides, the “concentration range of significant suppression of AR-cofactor interaction” value at AR-cofactor interaction fell in the range of 0.1 to 1 µM. For the same compound, in the data set with NOD/SCID mice, the “changes in body weight, clinical signs and gross morphology” value was “no significant alterations”; the mouse mortality result is listed as “No mouse mortality was observed”.
In the case of `COc1cccc(Nc2nnc(-c3ccc(N(C)C)cc3)o2)c1` [LHJ-647], in the data set on LNCaP, the IC50 is 1 to 10 µM. For the same compound, the “concentration range of significant suppression of AR-cofactor interaction” value at AR-cofactor interaction was in the range of 0.1 to 1 µM. Also, in the data set with NOD/SCID mice, the “changes in body weight, clinical signs and gross morphology” value is “no significant alterations”; the mouse mortality result is listed as “No mouse mortality was observed”.

For the origin of these results see publication PMC5642495, “Characterization of a novel androgen receptor (AR) coregulator RIPK1 and related chemicals that suppress AR-mediated prostate cancer growth via peptide and chemical screening” (Oncotarget, 2017).
